From patent publication US7241754B2, “2-Desmethyl ansamycin compounds” (priority 2003, dated 2007)

Columns and labels:
Hsp90 = Hsp90 (Homo sapiens, UniProt P07900); assay: Hsp90 filter binding assay
SKBr3 cells = assay: Cytotoxicity against SKBr3 cells (CellTiter-Glo, 72 h); type: cell-based; settings: Homo sapiens, SK-BR-3, 72 h, read-out: Cytotoxicity against SKBr3 Cells (IC50, μM)
Experimental: Cytotoxicity was determined with SKBr3 cells (ATCC HTB-30), a breast cancer cell line. […] Cells were plated into 96-well microtiter back plates at 4,000 cells per 50μL per well, overnight. Serial 10x dilutions of test compound (10 μM to 0.1 pM) in cell culture media were prepared with a Biomek 2000 apparatus, using the protocols of deeper-1000 μL-media and deeper-1000 μL-dilution. 50 μL of each dilution was added to wells containing cells. Each compound or control (medium only) was tested in duplicate. For each assay, the wells contained a final volume of 100 μL (50 μL of cells and 50 μL of compound dilution). […] CellTiter-Glo Luminescent Reagent (Promega #G7573) (100 μL) was added to each well. The well contents were mixed for 5 min and the plates were kept at room temperature for another 30 min. Luminescence was recorded using a Wallac VICTOR^2 Multilabel Counter (PerkinElmer) and IC50 values were determined using Kaleidagraph software (Synergy Software).

CCFT-CEM cells = assay: Cytotoxicity against CCFT-CEM cells; settings: read-out: IC50, cytotoxicity against CCFT-CEM cells

Row | Structure (SMILES) | Kd (Hsp90) | IC50 (SKBr3 cells) | IC50 (CCFT-CEM cells)
1 | CO[C@H]1C[C@H](C)Cc2cc(O)cc(c2)NC(=O)/C=C/CC[C@H](OC)[C@@H](OC(N)=O)/C(C)=C/[C@H](C)[C@H]1O [Compound 1-A] | 17 nM | 0.85 µM | 2500 nM
2 | C=CCOc1cc2cc(c1)NC(=O)C=CCCC(OC)C(OC(N)=O)C(C)=CC(C)C(O)C(OC)CC(C)C2 (centres unmarked) [Compound 1-B] | 1000 nM | > 5 µM | –
3 | COC1CCC=CC(=O)Nc2cc(cc(OCCN(C)C)c2)CC(C)CC(OC)C(O)C(C)C=C(C)C1OC(N)=O (centres unmarked) [Compound 1-C] | 230 nM | > 10 µM | –
4 | COc1cc2cc(c1)NC(=O)C=CCCC(OC)C(OC(N)=O)C(C)=CC(C)C(O)C(OC)CC(C)C2 (centres unmarked) [Compound 1-D] | 510 nM | 6 µM | –
5 | COC1CCC=CC(=O)Nc2cc(cc(OCC(N)=O)c2)CC(C)CC(OC)C(O)C(C)C=C(C)C1OC(N)=O (centres unmarked) [Compound 1-E] | 440 nM | > 5 µM | –
6 | COC1CCC=CC(=O)Nc2cc(cc(O)c2CN(C)C)CC(C)CC(OC)C(O)C(C)C=C(C)C1OC(N)=O (centres unmarked) [Compound 1-F] | 200 nM | 0.63 µM | –
7 | COC1CCC=CC(=O)Nc2cc(cc(O)c2CN2CCOCC2)CC(C)CC(OC)C(O)C(C)C=C(C)C1OC(N)=O (centres unmarked) [Compound 1-G] | 640 nM | > 5 µM | –
8 | COC(=O)COc1cc2cc(c1)NC(=O)C=CCCC(OC)C(OC(N)=O)C(C)=CC(C)C(O)C(OC)CC(C)C2 (centres unmarked) [Compound 1-H] | 360 nM | > 5 µM | –
9 | COC1CCC=CC(=O)Nc2cc(cc(OCC(=O)O)c2)CC(C)CC(OC)C(O)C(C)C=C(C)C1OC(N)=O (centres unmarked) [Compound 1-I] | 930 nM | > 5 µM | –
10 | COC1CCC=CC(=O)Nc2cc(cc(O)c2Br)CC(C)CC(OC)C(O)C(C)C=C(C)C1OC(N)=O (centres unmarked) [Compound 1-J] | 1700 nM | > 5 µM | –
11 | COC1CCC=CC(=O)Nc2cc(O)c(Br)c(c2)CC(C)CC(OC)C(O)C(C)C=C(C)C1OC(N)=O (centres unmarked) [Compound 1-K] | 140 nM | 0.8 µM | –
12 | COC1CCC=CC(=O)Nc2cc(c(Br)c(O)c2Br)CC(C)CC(OC)C(O)C(C)C=C(C)C1OC(N)=O (centres unmarked) [Compound 1-M] | 5900 nM | > 5 µM | –
13 | COC1CCC=CC(=O)Nc2cc(c(CN(C)CCN(C)C)c(O)c2Br)CC(C)CC(OC)C(O)C(C)C=C(C)C1OC(N)=O (centres unmarked) [Compound 1-N] | 31000 nM | > 5 µM | –
14 | COC1=C2C[C@@H](C)C[C@H](OC)[C@H](O)[C@@H](C)/C=C(\C)[C@H](OC(N)=O)[C@@H](OC)/C=C\C=C(/C)C(=O)NC(=CC1=O)C2=O [Geldanamycin, reference compound] | – | 0.023 µM | –
15 | CO[C@H]1C[C@H](C)Cc2cc(O)cc(c2)NC(=O)CC(O)CC[C@H](OC)[C@@H](OC(N)=O)/C(C)=C/[C@H](C)[C@H]1O (some centres unmarked) [III] | 1000 nM | > 5 µM | –
16 | CO[C@H]1C[C@H](C)Cc2cc(O)cc(c2)NC(=O)CC(O)CC[C@H](OC)[C@@H](O)/C(C)=C/[C@H](C)[C@H]1O (some centres unmarked) [IV] | 17000 nM | > 5 µM | –
